# In US20050267182A1, “Urea derivatives as FLT-3 modulators” (Ambit Biosciences Corporation, priority 2003, published 2005):
# Key:
# FLT3 = molecular target: T1, FLT3 (Homo sapiens, UniProt P36888); test: Binding constant (Kd) measurement, phage-displayed kinase competition binding assay; conditions: for Binding Assay: FLT3(DKIN): FLT3(DKIN) construct; for Binding Assay: FLT3(JMminus): FLT3(JMminus) construct
# T1 construct: FLT3(DKIN); made in house
# T1 sequence (P36888 610-943 limits assumed): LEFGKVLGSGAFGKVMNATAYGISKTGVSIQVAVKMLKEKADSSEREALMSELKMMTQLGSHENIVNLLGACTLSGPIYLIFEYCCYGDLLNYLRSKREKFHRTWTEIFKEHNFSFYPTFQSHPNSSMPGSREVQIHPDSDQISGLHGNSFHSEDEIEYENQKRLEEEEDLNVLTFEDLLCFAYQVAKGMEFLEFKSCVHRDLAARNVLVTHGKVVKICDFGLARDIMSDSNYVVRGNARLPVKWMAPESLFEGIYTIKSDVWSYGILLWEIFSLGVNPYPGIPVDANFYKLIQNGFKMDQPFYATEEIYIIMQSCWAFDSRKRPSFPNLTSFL
# From the text: Binding Constant (Kd) Measurements for Small-Molecule-Kinase Interactions
# The term “ND” represents non-determined values.
# MV4,11 cells = test: FLT3 assay using MV4,11 cells (cellular proliferation, MTS); type: cell-based, human; conditions: cell assay code CS0001
# Outline: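 MV4,11 AML cells, […] switch to DMEM/10% FBS overnight, plated at 10,000 cells/well and exposed to serially diluted compounds in duplicate for 3 days at 37° C., 5% CO2. Proliferation read by MTS added for 2 h.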
# CS0005 = test: Cell Assay: CS0005; type: cell-based; conditions: cell assay code CS0005
# CS0002 = test: Cell Assay: CS0002; type: cell-based; conditions: cell assay code CS0002
Binding Assay: FLT3(DKIN) (FLT3),"Cell Assay: CS0001:IC50 (MV4,11 cells)",Cell Assay: CS0005:IC50 (CS0005),Cell Assay: CS0002:IC50 (CS0002),Binding Assay: FLT3(JMminus) (FLT3),IC50 (CS0002) [µM],Structure (SMILES)
+ + + +,+ + + +,+ + + +,+ +,–,–,CC(C)(C)c1cc(NC(=O)Nc2ccc(Nc3ncnc4[nH]cnc34)cc2)no1 [Compound O3]
+ + + +,+ + + +,+ + + +,+ +,–,–,COc1cc2ncnc(Nc3ccc(NC(=O)Nc4cc(C(C)(C)C)on4)cc3)c2cc1OC [Compound O5]
–,+ + + +,+ + + +,–,+ + + +,> 10,Cc1cnc(C(=O)Nc2ccc(NC(=O)Nc3cc(C(C)(C)C)on3)cc2)c(C(=O)O)n1 [Compound N160]
+ + + +,+ + + +,+ + + +,+ +,–,–,Cc1nn(C)c(Cl)c1C(=O)Nc1ccc(NC(=O)Nc2cc(C(C)(C)C)on2)cc1 [Compound N116]
+ + + +,+ + + +,+ + + +,+ +,–,–,CC(C)(C)c1cc(NC(=O)Nc2ccc(NC(=O)c3cnnc4ccccc34)cc2)no1 [Compound N147]
–,+ + +,–,+ +,+ + + +,–,CC(C)(C)c1cc(NC(=O)Nc2ccc(NC(=O)c3ccc(Oc4ccnc(C(=O)O)c4)cc3)cc2)no1 [Compound N166]
+ + + +,+ +,–,–,–,> 10,CC(C)(C)c1cc(NC(=O)Nc2ccc(NC(=O)c3nccnc3C(N)=O)cc2)no1 [Compound N138]
–,+ + + +,–,–,+ + +,> 10,CC(C)(C)c1cc(NC(=O)Nc2ccc(NC(=O)c3cccnc3C(=O)O)cc2)no1 [Compound N165]
–,+ + + +,–,+ +,+ + + +,–,Cc1nc(-c2ccc(Cl)cc2)sc1C(=O)Nc1ccc(NC(=O)Nc2cc(C(C)(C)C)on2)cc1 [Compound N184]
–,+ + + +,–,–,+ + + +,> 10,CC(C)(C)c1cc(NC(=O)Nc2ccc(Nc3cc(N)nc(N)n3)cc2)no1 [Compound O7]
–,+ + + +,–,+ +,+ + + +,–,CCOC(=O)c1cccc(C(=O)Nc2ccc(NC(=O)Nc3cc(C(C)(C)C)on3)cc2)n1 [Compound N164]
–,+ + +,–,+ +,+ + + +,–,Cc1ccc(-c2nc(C(=O)Nc3ccc(NC(=O)Nc4cc(C(C)(C)C)on4)cc3)cs2)cc1 [Compound N178]
–,+ + +,–,+ +,+ + + +,–,COC(=O)c1cccc(Sc2ncc(NC(=O)Nc3cc(C(C)(C)C)on3)s2)c1 [Compound O8]

# Continued, compound first:
Structure (SMILES),Binding Assay: FLT3(DKIN) (FLT3),"Cell Assay: CS0001:IC50 (MV4,11 cells)",Cell Assay: CS0005:IC50 (CS0005),Cell Assay: CS0002:IC50 (CS0002),Binding Assay: FLT3(JMminus) (FLT3),IC50 (CS0002) [µM]
COc1ccnc(Nc2ccc(C(=O)Nc3ccc(NC(=O)Nc4cc(C(C)(C)C)on4)cc3)cc2)n1 [Compound N51],+ + + +,+ + + +,+ + + +,+ +,–,–
CC(C)(C)c1cc(NC(=O)Nc2ccc(NC(=O)c3cn4c(n3)sc3ccccc34)cc2)no1 [Compound N73],–,+ + + +,+ + + +,+ + +,+ + + +,–
CC(C)(C)c1cc(NC(=O)Nc2ccc(OC/C=C/c3ccccc3Cl)cc2)no1 [Compound G26],+ + + +,+ + + +,+ + + +,+ +,–,–
CC(C)(C)c1cc(NC(=O)Nc2ccc(NC(=O)c3cccc4nsnc34)cc2)no1 [Compound N109],+ + + +,+ + + +,+ + +,–,–,> 10
CC(C)(C)c1cc(NC(=O)Nc2ccc(NC(=O)/C=C/c3ccccc3Cl)cc2)no1 [Compound N40],+ + + +,+ + + +,+ + + +,–,–,> 10
CC(C)(C)c1cc(NC(=O)Nc2ccc(OCc3ccc(-c4ccccc4)cc3)cc2)no1 [Compound G56],+ + + +,+ + + +,+ + + +,–,–,–
CC(C)(C)c1cc(NC(=O)Nc2ccc(OCc3ccc(F)cc3)cc2)no1 [Compound G35],+ + + +,+ + + +,+ + +,–,–,> 10
CC(C)(C)c1cc(NC(=O)Nc2ccc(CCc3ccccc3)cc2)no1 [Compound A15],+ + + +,+ + + +,+ + +,+ +,–,–
CC(C)(C)c1cc(NC(=O)Nc2ccc(NC(=O)c3cccc4cccnc34)cc2)no1 [Compound N115],+ + + +,+ + + +,+ + + +,+ + +,–,–
CC(C)(C)c1cc(NC(=O)Nc2ccc(OCc3ccc(Cl)cc3)cc2)no1 [Compound G34],+ + + +,+ + + +,+ + +,–,–,> 10
Cn1nc(C(C)(C)C)cc1C(=O)Nc1ccc(NC(=O)Nc2cc(C(C)(C)C)on2)cc1 [Compound N10],+ + + +,+ + +,+ + +,–,–,–
COc1cc(OC)nc(Sc2ccccc2C(=O)Nc2ccc(NC(=O)Nc3cc(C(C)(C)C)on3)cc2)n1 [Compound N47],+ + + +,+ + +,–,+ + +,–,–
CC(C)(C)c1cc(NC(=O)Nc2ccc(NC(=O)c3ccccc3)cc2)no1 [Compound N34],+ + + +,+ + + +,+ + + +,–,–,–
Cn1nc(C(F)(F)F)c2cc(C(=O)Nc3ccc(NC(=O)Nc4cc(C(C)(C)C)on4)cc3)sc21 [Compound N64],+ + + +,+ + +,–,–,–,> 10
COc1cc(OC)nc(Nc2cccc(C(=O)Nc3ccc(NC(=O)Nc4cc(C(C)(C)C)on4)cc3)c2)n1 [Compound N49],+ + + +,+ + + +,–,+ + +,–,–
CC(C)(C)c1cc(NC(=O)Nc2ccc(C(=O)/C=C/c3ccncc3)cc2)no1,–,+ + +,–,–,+ + + +,> 10
CC(C)(C)c1cc(NC(=O)Nc2ccc(OCc3ccccc3)cc2)no1 [Compound G31],+ + + +,+ + + +,+ + +,–,–,–
CC(C)(C)c1cc(NC(=O)Nc2ccc(NC(=O)c3cc4ccccc4cn3)cc2)no1 [Compound N106],–,–,+ + + +,–,–,> 10
CC(C)(C)c1cc(NC(=O)Nc2ccc(NC(=O)c3nocc3C(C)(C)C)cc2)no1 [Compound N82],–,+ + +,–,+ +,+ + +,–
Cc1nc(-c2cccnc2)sc1C(=O)Nc1ccc(NC(=O)Nc2cc(C(C)C)on2)cc1 [Compound N48],+ + + +,+ + + +,–,+ +,–,–
CC(C)(C)c1cc(NC(=O)Nc2ccc(NC(=O)c3ccc(Cl)cc3)cc2)no1 [Compound N26],+ +,+ +,+ + +,–,–,–
CC(C)(C)c1cc(NC(=O)Nc2ccc(OCc3cccc(Cl)c3)cc2)no1 [Compound G11],+ + + +,+ + + +,+ + +,–,–,–
CC(C)(C)c1cc(NC(=O)Nc2ccc(OCc3ccccc3)cc2)on1 [Compound G30],+ + + +,+ + + +,–,+ +,–,–
CC(C)(C)c1cc(NC(=O)Nc2ccc([N+](=O)[O-])cc2)no1 [Compound A21],–,+ + +,–,+ +,+ + +,–
CC(C)(C)c1cc(NC(=O)Nc2ccc(NC(=O)c3ccc4ccccc4c3)cc2)no1 [Compound N28],+ + + +,+ + + +,+ + + +,–,–,–
CC(C)c1cc(NC(=O)Nc2ccc(NC(=O)C3CCN(c4ncc(C(F)(F)F)cc4Cl)CC3)cc2)no1 [Compound N59],+ + +,+ + + +,–,–,–,> 10
CC(C)(C)c1cc(NC(=O)Nc2ccc(OCc3cccc(F)c3)cc2)no1 [Compound G14],+ + + +,+ + + +,+ + +,–,–,–
